Measured values as given in patent US9817000B2, “Method for identifying compounds that modulate a T2R taste receptor” (The Regents of the University of California, priority 1999, dated 2017).
Where a chain is given by its changes, count along the chain named. pEC50: −log10 of the molar value.

What was measured:
[1] = molecular target: T1, mT2R5 (C57BL/6-allele) (Mus musculus, UniProt Q9JKT4, G155D/I85V/L294R/T101A/T44I); assay: FURA-2 [Ca2+]i imaging in HEK-293 cells expressing Gα15 and rho-mT2R5 from non-taster strain (C57BL/6 allele); type: cell-based
T1 construct: expressed in transfected cells; host or cells: modified HEK-293 cells (PEAKrapid) expressing Gα15
T1 sequence (Q9JKT4 1-300 T44I/I85V/T101A/G155D/L294R): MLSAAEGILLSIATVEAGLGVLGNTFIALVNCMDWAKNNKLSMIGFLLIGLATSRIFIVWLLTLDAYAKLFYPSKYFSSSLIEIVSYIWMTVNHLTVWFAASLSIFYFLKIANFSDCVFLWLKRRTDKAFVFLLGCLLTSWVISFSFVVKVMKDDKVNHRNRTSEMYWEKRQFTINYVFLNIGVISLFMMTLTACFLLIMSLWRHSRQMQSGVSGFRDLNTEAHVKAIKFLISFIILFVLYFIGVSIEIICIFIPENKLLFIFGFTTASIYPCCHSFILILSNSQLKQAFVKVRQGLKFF
Experimental: A bridge overlap PCR extension technique was used to generate rho-T2R chimeras, which contain the first 39 amino acids of bovine rhodopsin in frame with human and rodent T2R coding sequences (Mehta and Singh, Biotechniques 26:1082-1086 (1999). All receptors were cloned into a pEAK10 mammalian expression vector (Edge Biosystems, MD). Modified HEK-293 cells (PEAK^rapid cells; Edge BioSystems, MD) were grown and maintained at 37° C. in UltraCulture medium (Bio Whittaker) supplemented with 5% fetal bovine serum, 100 μg/ml Gentamycin sulphate (Fisher), 1 μg/ml Amphotericin B and 2 mM GlutaMax I (Lifetechnologies). […]
Transfected cells were washed once in Hank's balanced salt solution with 1 mM sodium pyruvate and 10 mM HEPES, pH 7.4 (assay buffer), and loaded with 2 μM FURA-2 AM (Molecular Probes) for 1 h at room temperature. […] [Ca^2+]i changes were monitored using a Nikon Diaphot 200 microscope equipped with a 10×/0.5 fluor objective with the TILL imaging system (T.I.L.L Photonics GmbH). Acquisition and analysis of the fluorescence images used TILL-Vision software. Generally, [Ca^2+]i was measured for 80-120 s by sequentially illuminating cells for 200 ms at 340 nm and 380 nm and monitoring the fluorescence emission at 510 nm using a cooled CCD camera. The F340/F380 ratio was analyzed to measure [Ca^2+]i. […]

[2] = molecular target: T2, mT2R5 coupling to Gαs, Gαi, Gαq or Gαo (Mus musculus, UniProt Q9JKT4); assay: Tastant-induced GTPγS binding to other G-protein α-subunits with mT2R5 membranes; type: biochemical
T2 construct: infectious Bacmid containing rhodopsin tagged mT2R5 (DBA/2-allele) was produced using the Bac-to-Bac system; rhodopsin tag (rho); made in house; host or cells: insect larval cells infected with recombinant Bacmid (Bac-to-Bac); membrane preparation
T2 sequence (Q9JKT4 1-300): T1 sequence (Q9JKT4 1-300 T44I/I85V/T101A/G155D/L294R) with I44T, V85I, A101T, D155G, R294L
Experimental: To investigate the selectivity of T2R-G-protein coupling, mT2R5 was chosen for study because its activation by cycloheximide recapitulates mouse taste responses. Rho-tagged mT2R5 and gustducin were prepared using a baculovirus expression system. mT2R5-containing membranes were incubated with various purified G-proteins, including gustducin, and measured tastant-induced GTP-γS binding (Hoon et al., Biochem J 309:629-636 (1995)). Specifically, infectious Bacmid containing rhodopsin tagged mT2R5 (DBA/2-allele) was produced using the Bac-to-Bac system (Lifetechnologies, MD). Insect larval cells were infected for 60 h with recombinant Bacmid and membranes were prepared as described previously (Ryba and Tirindelli, J Biol Chem, 270:6757-6767 (1995)). Peripheral proteins were removed by treatment with 8 M urea and membranes were resuspended in 10 mM HEPES pH7.5, 1 mM EDTA and 1 mM DTT. The expression of rho-mT2R5 was assessed by Western blot using mAb B6-30 and quantitated by comparison with known amounts of rhodopsin. Approximately 300 pmol of rho-mT2R5 could be obtained from 2×10^8 infected cells. […] Receptor-catalyzed exchange of GDP for GTPγS on gustducin and other G-protein α-subunits was measured in the presence of 10 nM rho-mT2R5, 100 μM GDP, and 20 μM Gβ1γ8. […]

[3] = system: other hT2Rs; assay: FURA-2 [Ca2+]i imaging in control untransfected cells or cells transfected with other hT2Rs; type: cell-based, human
Experimental: To determine whether other T2Rs are also activated by bitter compounds, 11 rhodopsin-tagged human T2R receptors were assayed by individually transfecting them into HEK-293 cells expressing Gα15. Each transfected line was tested against a battery of bitter and sweet tastants, including amino acids, peptides, and other natural and synthetic compounds.

C[C@@H]1C[C@@H]([C@H](O)CC2CC(=O)NC(=O)C2)C(=O)[C@@H](C)C1 [cycloheximide]
pEC50 [1]: ~5.64 | dose response compared with receptor from taster strains [1]: shift in cycloheximide sensitivity | coupling of mT2R5 to other G-proteins [2]: no coupling

CC[N+](CC)(CC(=O)Nc1c(C)cccc1C)Cc1ccccc1 [denatonium]
[Ca2+]i response [3]: not
